“And” between values parts separate entries of the source, which are not always exact repeats. Equal entries are not always repeated. Where two headings read alike, the source gives them in different places.
Tests used:
S. pneumoniae NCTC7466 [1] = experiment: MIC against S. pneumoniae NCTC7466 (D39); format: cell-based; settings: Streptococcus pneumoniae
Procedure: (§1) Minimum inhibitory concentration (MIC) assays for the antibacterial activities of the compounds were performed according to the standard […] method of the Clinical and Laboratory Standards Institute of America. MIC testing of drug-resistant S. pneumoniae, drug-resistant S. aureus, streptococci and antimicrobial combination was also performed using the same method. Briefly, the drugs were serially diluted 2-fold into eight wells with C+Y medium, yielding final concentrations ranging from […]. Then 10^6 CFU bacteria were added to each well. Inoculated medium containing 1% DMSO served as a bacterial growth control, whereas uninoculated medium served as a sterility control. The plates were incubated at 37°C for 12–16 h. […] The experiment was repeated three times.

S. pneumoniae NCTC7466 [2] = experiment: Mouse sepsis model, survival time; format: in vivo, BALB/c mice; settings: i.p. infection 1 × 10^3 CFU, drug i.p. thrice a day for 3 d, untreated control 28.8 ± 1.25
Procedure: Female BALB/c mice (12–15 per group) aged 4–6 weeks were used to evaluate the antimicrobial effects of the compounds in vivo. In sepsis models, the mice were intraperitoneally infected with 100 μL S. pneumoniae NCTC7466 strain suspension (1 × 10^3 CFU). […] Two control groups were injected with 100 μL 1% DMSO (dissolved the drugs, negative control) or PEN (0.42 mg/kg/d, positive control) following the same injection route. The result was expressed as cumulative survival times following 7 d of observation.

Cytotoxicity assay (MTT) = format: cell-based; settings: African green monkey, Vero cells
Procedure: The cytotoxicity of the drugs to Vero cells (African green monkey kidney cells) was detected as previously described (Huang et al., [2012]) with minor modifications. In 96-well cell culture plates, the cells (~10^3 cells per well) were exposed to the serially diluted drugs for 48 h. Then, relative cell numbers were assayed by co-incubation with 3-(4, 5-dimethylthiazol-2-yl)-2, 5-diphenyltetrazolium bromide for 4 h at 37°C in 5% CO2. Purple formazan salts were dissolved with DMSO after incubation. The absorbance of each well was measured at 595 nm and then converted to percentages of the control (cells treated with 1% DMSO). The concentration of the derivatives with 50% cytotoxicity for Vero cells (CC50) was calculated using GraphPad Prism 5 (San Diego, CA).

S. pyogenes = experiment: MIC against S. pyogenes; format: cell-based; settings: Streptococcus pyogenes
Procedure: as §1

S. pneumoniae = experiment: Checkerboard test with erythromycin or tetracycline against S. pneumoniae; format: cell-based, Streptococcus pneumoniae
Procedure: The antimicrobial effects of different combinations of two antimicrobial agents were assayed using the checkerboard test (Bajaksouzian et al., [1997]). Each experiment was repeated thrice. […] The FIC index (FICI) was calculated using the following formula:
(§2) (2) FIC=FICA+FICB=[A]/MICA+[B]/MICB
(§3) where [A] and [B] are the concentrations of drugs A and B, respectively; MICA and FICA are the MIC and FIC of drug A for the organism, respectively; and MICB, and FICB are the MIC and FIC of drug B for the organism, respectively. The FIC index obtained was interpreted as follows: =0.5, synergy; FIC > 2.0, antagonism (Gupta and Kohli, [2003]).

[3] = system: Penicillin-resistant S. pneumoniae strains; experiment: Checkerboard test with penicillin against penicillin-resistant S. pneumoniae; format: cell-based, Streptococcus pneumoniae; settings: agent alone; for MIC: Streptococcus pneumoniae
Procedure: as §1
(§4) The antimicrobial effects of different combinations of two antimicrobial agents were assayed using the checkerboard test (Bajaksouzian et al., [1997]). Each experiment was repeated thrice. The in vitro interaction between the five drugs with PEN was quantified by the fractional inhibitory concentration (FIC). The FIC index (FICI) was calculated using the following formula:
as §2, §3

S. mutans = experiment: MIC against S. mutans; format: cell-based; settings: Streptococcus mutans
Procedure: as §1

S. mitis = experiment: MIC against S. mitis; format: cell-based; settings: Streptococcus mitis
Procedure: as §1

pneumococcal strains = experiment: MIC against clinical pneumococcal strains (penicillin susceptible, intermediate, resistant); format: cell-based, Streptococcus pneumoniae; settings: for MIC50 / MIC90: Streptococcus pneumoniae
Procedure: as §1

S. pseudopneumoniae = experiment: MIC against S. pseudopneumoniae; format: cell-based; settings: Streptococcus pseudopneumoniae
Procedure: as §1

full-length VicK protein = biological target: T1, full-length VicK protein (Streptococcus pneumoniae, UniProt Q8DPL8); experiment: Inhibition assay for ATPase activity of VicK (Kinase-Glo Luminescent Kinase Assay); format: biochemical; settings: 6 μg VicK, 5 μM ATP
T1 construct: 6 His; made in house
T1 sequence (Q8DPL8 whole entry): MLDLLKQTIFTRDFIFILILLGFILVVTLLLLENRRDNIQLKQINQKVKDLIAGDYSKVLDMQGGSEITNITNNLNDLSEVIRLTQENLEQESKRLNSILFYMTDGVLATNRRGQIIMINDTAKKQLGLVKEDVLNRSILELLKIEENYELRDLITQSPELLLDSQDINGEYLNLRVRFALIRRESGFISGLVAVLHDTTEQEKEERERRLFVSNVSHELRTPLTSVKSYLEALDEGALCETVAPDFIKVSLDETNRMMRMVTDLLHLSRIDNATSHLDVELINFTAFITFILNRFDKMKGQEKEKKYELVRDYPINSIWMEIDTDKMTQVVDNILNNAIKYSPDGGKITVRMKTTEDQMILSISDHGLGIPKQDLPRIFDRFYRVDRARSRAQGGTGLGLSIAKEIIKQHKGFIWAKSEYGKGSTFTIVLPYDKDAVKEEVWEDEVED
Procedure: The inhibitory activities of the Chinese medicine monomers for the ATPase activity of the full-length VicK protein were evaluated using the Kinase-Glo™Luminescent Kinase Assay (Promega, Madison, USA). Briefly, 6 μg VicK protein was pre-incubated with a series of dilution of compounds in the reaction buffer at 37°C for 30 min. 5 μM ATP was added and incubated for another 30 min. Kinase-Glo™Reagent was also added to detect the remaining ATP recorded from luminescence measurements (RLU). In parallel, the VicK protein with no addition of compounds was used as a control, and the mixture with compounds excluding the VicK protein served as another control. The rate of protein phosphorylation (Rp) inhibition by the compounds was calculated from Equation (1).
(1) Rp=1−RLU(compound+ATP+Reagent) −RLU(compound+ATP+vick+Reagent)/RLU(ATP +Reagent)−RLU(ATP+vick+Reagent)×100%
The half maximal inhibitory concentration (IC50), which is the concentration of inhibition of 50% VicK protein autophosphorylation, was determined by GraphPad Prism 5 (Qin et al., [2006]).

[4] = system: clinical S. pneumoniae 19A (CMCC31689); experiment: Mouse colonization model, serotype 19A; format: in vivo, BALB/c mice; settings: 19A
Procedure: (§5) In colonization models, the mice were intranasally challenged by 20 μL of clinical drug-resistant strains (pneumococcal serotype 19F or 19A, 1.5 × 10^8 CFU). An hour later, the mice were intraperitoneally injected with 100 μL drugs (2 × MIC) alone or in combination with PEN (2 × MIC). These injections were continued thrice a day for 3 d. Nasal wash and lung tissues were obtained to analyze the bacteria load at 24, 48, and 72 h after drug infection. Then 100 μL aliquots of the samples diluted were plated on blood agar plates. The colonies were counted after incubation overnight at 37°C with 5% CO2.

[5] = system: clinical S. pneumoniae 19F (CMCC31693); experiment: Mouse colonization model, serotype 19F; format: in vivo, BALB/c mice; settings: 19F
Procedure: as §5

S. aureus = experiment: Checkerboard test with penicillin against S. aureus; format: cell-based, Staphylococcus aureus; settings: agent alone
Procedure: as §1, §4, §2, §3

[6] = in combination with Erythromycin
[7] = in combination with Tetracycline
[8] = Penicillin intermediate (n = 12)

## CCCCCCCC=NNc1ccc([N+](=O)[O-])cc1[N+](=O)[O-] [Compound 2, Octanal 2,4-dinitrophenylhydrazone]
S. pneumoniae NCTC7466 [1]; S. pneumoniae NCTC7466 (D39), read-out: MIC
  MIC: 38.5 µg/mL
S. pneumoniae NCTC7466 [1]; S. pneumoniae NCTC7466 (D39), value in parentheses, read-out: MIC
  MIC: 125 µM
S. pneumoniae NCTC7466 [2]
  Mean survival of mice ± SEM: 42.1 ± 4.1 h
Cytotoxicity assay (MTT)
  CC50 at 48 h: > 4000 µM
S. pyogenes; S. pyogenes clinical isolate, 10^6 CFU/ml, read-out: MIC
  MIC: 308 µg/mL
S. pneumoniae; [6]
  FICI: 2
S. pneumoniae; [7]
  FICI: 0.75
[3]; strain 652336, read-out: MIC, Alone
  MIC: 154 µg/mL
[3]; strain 736007, read-out: MIC, Alone
  MIC: 154 µg/mL
[3]; strain 8364981, read-out: MIC, Alone
  MIC: 77 µg/mL
[3]; strain 12092624, read-out: MIC, Alone
  MIC: 154 µg/mL
S. mutans; S. mutans clinical isolate, 10^6 CFU/ml, read-out: MIC
  MIC: 616 µg/mL
S. mitis; S. mitis clinical isolate, 10^6 CFU/ml, read-out: MIC
  MIC: 308 µg/mL
Pneumococcal strains; [8]
  MIC of pneumococcal strains, Range: 38 to 154 µg/mL
Pneumococcal strains; Penicillin resistant (n = 15)
  MIC of pneumococcal strains, Range: 77 to 616 µg/mL
Pneumococcal strains; Penicillin susceptible (n = 7)
  MIC of pneumococcal strains, Range: 76 to 152 µg/mL
Pneumococcal strains; Penicillin intermediate (n = 12), read-out: MIC of pneumococcal strains, MIC50
  MIC50: 77 µg/mL
Pneumococcal strains; Penicillin intermediate (n = 12), read-out: MIC of pneumococcal strains, MIC90
  MIC90: 154 µg/mL
Pneumococcal strains; Penicillin resistant (n = 15), read-out: MIC of pneumococcal strains, MIC50
  MIC50: 308 µg/mL
Pneumococcal strains; Penicillin resistant (n = 15), read-out: MIC of pneumococcal strains, MIC90
  MIC90: 616 µg/mL
Pneumococcal strains; Penicillin susceptible (n = 7), read-out: MIC of pneumococcal strains, MIC50
  MIC50: 152 µg/mL
Pneumococcal strains; Penicillin susceptible (n = 7), read-out: MIC of pneumococcal strains, MIC90
  MIC90: 152 µg/mL
S. pseudopneumoniae; S. pseudopneumoniae clinical isolate, 10^6 CFU/ml, read-out: MIC
  MIC: 154 µg/mL
full-length VicK protein; IC50 (inhibition of VicK ATPase activity / autophosphorylation)
  IC50: 5.4 µM
full-length VicK protein; IC50 (inhibition of VicK ATPase activity / autophosphorylation), value in parentheses
  IC50: 5.35 µM

## CC1(C)S[C@@H]2[C@H](NC(=O)Cc3ccccc3)C(=O)N2[C@H]1C(=O)O [Penicillin, penicillin, reference compound]
[4]; Lung, 24 h, control 4.85
  Mean log CFU at site of infection: 4.8 log CFU
[4]; Lung, 48 h, control 6.12
  Mean log CFU at site of infection: 4.5 log CFU
[4]; Lung, 72 h, control 6.29
  Mean log CFU at site of infection: 4.89 log CFU
[4]; NW (nasal wash), 24 h, i.p. three times a day for 3 days, control 7.29
  Mean log CFU at site of infection: 6.44 log CFU
[4]; NW, 48 h, control 5.97
  Mean log CFU at site of infection: 5.88 log CFU
[4]; NW, 72 h, control 6.01
  Mean log CFU at site of infection: 5.34 log CFU
[5]; Lung, 24 h, control 2.82
  Mean log CFU at site of infection: 1 log CFU
[5]; Lung, 48 h, control 7.57
  Mean log CFU at site of infection: 2.58 log CFU
[5]; Lung, 72 h, control 4.95
  Mean log CFU at site of infection: 3.22 log CFU
[5]; NW (nasal wash), 24 h, i.p. three times a day for 3 days, control 6.72
  Mean log CFU at site of infection: 6.21 log CFU
[5]; NW, 48 h, control 6.27
  Mean log CFU at site of infection: 2.1 log CFU
[5]; NW, 72 h, control 7.09
  Mean log CFU at site of infection: 6.12 log CFU
[3]; strain 652336
  MIC, Alone: 4.4 µg/mL
[3]; strain 736007
  MIC, Alone: 7.1 µg/mL
[3]; strain 8364981
  MIC, Alone: 3.56 µg/mL
[3]; strain 12092624
  MIC, Alone: 3.56 µg/mL
S. aureus; MRSA8506305
  MIC, Alone: 6682 µg/mL
S. aureus; MRSA8548991
  MIC, Alone: 3339 µg/mL
S. aureus; S. aureus ATCC29213
  MIC, Alone: 52 µg/mL

## COC1=CC(=O)O[C@@H](/C=C/c2ccc3c(c2)OCO3)C1 [Compound 4, Kavahin]
S. pneumoniae NCTC7466 [1]; NCTC7466
  MIC: 68.5 µg/mL and 250 µM
S. pneumoniae NCTC7466 [2]; listed as Kavahin
  Mean survival of mice ± SEM: 71.1 ± 7.1 h
S. pneumoniae NCTC7466 [2]; listed as kavahin
  Mean survival of mice ± SEM: 71 h
Cytotoxicity assay (MTT)
  CC50 at 48 h: > 8000 µM
S. pyogenes
  MIC: 274 µg/mL
S. pneumoniae; [6]
  FICI: 0.5
  Outcome: Synergy (=0.5, synergy)
S. pneumoniae; [7]
  FICI: 0.51
[3]; read-out: MIC, Alone, strain 652336
  MIC: 548 µg/mL
[3]; read-out: MIC, Alone, strain 736007
  MIC: 274 µg/mL
[3]; read-out: MIC, Alone, strain 8364981
  MIC: 548 µg/mL
[3]; read-out: MIC, Alone, strain 12092624
  MIC: 274 µg/mL
S. mutans
  MIC: 274 µg/mL
S. mitis
  MIC: 274 µg/mL
Pneumococcal strains; [8]
  MIC of pneumococcal strains, Range: 68 to 518 µg/mL
Pneumococcal strains; Penicillin resistant (n = 15)
  MIC of pneumococcal strains, Range: 68.5 to 548 µg/mL
Pneumococcal strains; Penicillin susceptible (n = 7)
  MIC of pneumococcal strains, Range: 34 to 272 µg/mL
Pneumococcal strains; read-out: MIC of pneumococcal strains, MIC50, Penicillin intermediate (n = 12)
  MIC50: 137 µg/mL
Pneumococcal strains; read-out: MIC of pneumococcal strains, MIC50, Penicillin resistant (n = 15)
  MIC50: 274 µg/mL
Pneumococcal strains; read-out: MIC of pneumococcal strains, MIC50, Penicillin susceptible (n = 7)
  MIC50: 68.5 µg/mL
Pneumococcal strains; read-out: MIC of pneumococcal strains, MIC90, Penicillin intermediate (n = 12)
  MIC90: 274 µg/mL
Pneumococcal strains; read-out: MIC of pneumococcal strains, MIC90, Penicillin resistant (n = 15)
  MIC90: 548 µg/mL
Pneumococcal strains; read-out: MIC of pneumococcal strains, MIC90, Penicillin susceptible (n = 7)
  MIC90: 136 µg/mL
S. pseudopneumoniae
  MIC: 34 µg/mL
full-length VicK protein; read-out: IC50 (inhibition of VicK ATPase activity / autophosphorylation) (converted)
  IC50: 4.6 µM
full-length VicK protein; value in parentheses, read-out: IC50 (inhibition of VicK ATPase activity / autophosphorylation) (converted)
  IC50: 4.56 µM
